Test results published in ChEMBL document CHEMBL1201862, “PubChem BioAssay data set” (2004).
Calls of active or inactive are those of the source.

Assays:
[1] = molecular target: T1, High affinity choline transporter 1 (Homo sapiens, UniProt Q9GZV3); assay: human choline transporter blockers, potency – cell-based, 5-point CRC, membrane potential dye, dose response (AID 504840); type: functional
T1 sequence (Q9GZV3 whole entry): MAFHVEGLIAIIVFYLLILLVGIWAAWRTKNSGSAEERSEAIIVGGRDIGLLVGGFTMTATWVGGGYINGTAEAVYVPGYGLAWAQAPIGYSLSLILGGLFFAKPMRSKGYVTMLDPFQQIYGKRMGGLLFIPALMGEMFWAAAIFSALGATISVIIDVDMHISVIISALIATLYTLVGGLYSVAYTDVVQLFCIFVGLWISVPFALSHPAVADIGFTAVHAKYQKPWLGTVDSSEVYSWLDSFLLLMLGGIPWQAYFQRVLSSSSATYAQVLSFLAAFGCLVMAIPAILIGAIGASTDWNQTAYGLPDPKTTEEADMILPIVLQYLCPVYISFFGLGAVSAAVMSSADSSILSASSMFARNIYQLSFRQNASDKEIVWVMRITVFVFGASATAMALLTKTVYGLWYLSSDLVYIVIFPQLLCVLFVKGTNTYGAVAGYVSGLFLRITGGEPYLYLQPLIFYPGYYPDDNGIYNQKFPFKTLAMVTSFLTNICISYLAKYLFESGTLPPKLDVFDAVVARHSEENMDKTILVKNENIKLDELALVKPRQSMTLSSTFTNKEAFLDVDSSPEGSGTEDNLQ

[2] = tested on: H9c2; assay: cells; type: functional, cell-based; conditions: Rattus norvegicus, H9c2, Myocardium;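 note: confirmatory concentration-response retest of ultra-high-throughput screening hits for modulation of myocardial damage; cell death induced by hydrogen peroxide oxidative stress; compound pretreatment for 60 min then peroxide exposure for 2 h; potency is for protecting the cells against peroxide damage rather than for killing them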
[3] = molecular target: Glucose-6-phosphate 1-dehydrogenase (Homo sapiens, UniProt P11413); assay: inhibition of Homo sapiens G6PD, dose series – biochemical, fluorescence, selectivity assay for P. falciparum G6PD inhibitor project, dose response (AID 504792); type: functional
[4] = tested on: HEK293; assay: cells; type: functional, cell-based; conditions: Homo sapiens
[5] = tested on: HEK293; assay: cells; type: functional, cell-based; conditions: Homo sapiens; remark: listed apart in the source
[6] = tested on: HEK293; assay: NOD2 signaling inhibitors in MDP-stimulated cells, cell-based, uHTS, luminescence (AID 2001); type: functional; conditions: Homo sapiens
[7] = tested on: HEK293; assay: inhibition of NOD1-driven NF-kB reporter – cell-based, luminescence, uHTS, primary screen (AID 1578); type: functional; conditions: Homo sapiens
[8] = molecular target: Large T antigen (Simian virus 40, UniProt P03070); type: functional, Betapolyomavirus macacae;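 note: Confirmatory-stage PubChem screen for compounds that inhibit SV40 T antigen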
[9] = molecular target: Protein-tyrosine kinase 2-beta (Homo sapiens, UniProt Q14289);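 note: potency of inhibitors of PYK2 kinase phosphorylation of poly-GT substrate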
[10] = molecular target: T2, Short transient receptor potential channel 4 (Mus musculus, UniProt Q9QUQ5); assay: calcium entry via TRPC4 opening agents – cell-based, HEK293 TRPC4/mu-opioid, Fluo-4 calcium, dose response (AID 434937); type: functional
T2 sequence (Q9QUQ5 whole entry): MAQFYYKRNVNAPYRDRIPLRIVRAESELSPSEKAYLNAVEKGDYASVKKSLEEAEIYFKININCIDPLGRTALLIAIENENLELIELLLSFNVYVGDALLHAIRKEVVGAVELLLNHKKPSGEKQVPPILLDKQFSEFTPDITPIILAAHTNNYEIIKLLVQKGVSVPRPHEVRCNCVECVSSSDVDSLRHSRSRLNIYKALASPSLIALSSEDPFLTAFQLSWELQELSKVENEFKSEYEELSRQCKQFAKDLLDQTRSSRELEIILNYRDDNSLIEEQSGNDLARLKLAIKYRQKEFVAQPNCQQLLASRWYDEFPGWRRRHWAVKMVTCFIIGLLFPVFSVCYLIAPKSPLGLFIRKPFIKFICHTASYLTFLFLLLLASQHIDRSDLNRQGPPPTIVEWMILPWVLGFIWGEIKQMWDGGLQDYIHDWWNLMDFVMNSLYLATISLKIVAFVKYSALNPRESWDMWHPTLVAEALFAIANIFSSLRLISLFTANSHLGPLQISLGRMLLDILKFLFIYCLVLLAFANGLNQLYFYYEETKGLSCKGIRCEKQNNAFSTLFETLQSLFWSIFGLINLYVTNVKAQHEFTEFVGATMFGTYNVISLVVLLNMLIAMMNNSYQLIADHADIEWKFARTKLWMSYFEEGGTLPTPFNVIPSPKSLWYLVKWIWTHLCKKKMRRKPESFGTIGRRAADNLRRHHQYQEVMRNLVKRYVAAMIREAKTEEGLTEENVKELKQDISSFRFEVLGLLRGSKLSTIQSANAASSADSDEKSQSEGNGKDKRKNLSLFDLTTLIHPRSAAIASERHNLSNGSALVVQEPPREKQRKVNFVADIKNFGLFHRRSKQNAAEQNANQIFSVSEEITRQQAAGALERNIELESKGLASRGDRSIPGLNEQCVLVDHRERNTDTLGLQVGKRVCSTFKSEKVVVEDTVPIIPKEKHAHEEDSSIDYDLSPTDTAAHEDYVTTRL

[11] = blockers of bursicon-stimulated LGR2 cAMP reporter – cell-based, HEK293, CRE-luciferase reporter, cherry pick, set 2, dose response (AID 743343); type: functional;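 note: transfected cells were stimulated with diluted bursicon conditioned medium after compound addition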
[12] = blockade of melanocortin 4 receptor signaling – cell-based, plate reader, cherry pick, counter-screen for LGR2 antagonist project, dose response (AID 743444); type: functional;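 note: transfected HEK 293 cells stimulated with alpha-MSH peptide; potency of inhibitors of the alpha-MSH evoked signal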
[13] = blockers of HIV-1 envelope-mediated cell-cell fusion – cherry-pick, dose response (AID 652057); type: functional, cell-based
[14] = HIV-1 AD8 envelope cell-cell fusion blockers – cherry-pick, dose response (AID 652062); type: functional, cell-based;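 note: luciferase signal from cell-cell fusion driven by HIV-1 clade B AD8 Env; potency is for inhibitors of fusion seen as a drop in luminescence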
[15] = Luminescence Cell-Based Dose Response HTS to Identify Inhibitors of 5'UTR Stem-Loop Driven Prion Protein mRNA Translation in H4 Neuroglioblastoma Cells. [Related pubchem assays: 1827 (Project Summary), 1813 (Primary HTS)]; type: functional
[16] = alpha-synuclein stem-loop luciferase translation blockers – H4 neuroglioma cells, luminescence, confirmation (AID 1988); type: functional, cell-based
[17] = luciferase reporter signal suppression in cells – H4 neuroglioma cells, luminescence, dose response (AID 1990); type: functional, cell-based

Chain of Glucose-6-phosphate 1-dehydrogenase (P11413 whole entry): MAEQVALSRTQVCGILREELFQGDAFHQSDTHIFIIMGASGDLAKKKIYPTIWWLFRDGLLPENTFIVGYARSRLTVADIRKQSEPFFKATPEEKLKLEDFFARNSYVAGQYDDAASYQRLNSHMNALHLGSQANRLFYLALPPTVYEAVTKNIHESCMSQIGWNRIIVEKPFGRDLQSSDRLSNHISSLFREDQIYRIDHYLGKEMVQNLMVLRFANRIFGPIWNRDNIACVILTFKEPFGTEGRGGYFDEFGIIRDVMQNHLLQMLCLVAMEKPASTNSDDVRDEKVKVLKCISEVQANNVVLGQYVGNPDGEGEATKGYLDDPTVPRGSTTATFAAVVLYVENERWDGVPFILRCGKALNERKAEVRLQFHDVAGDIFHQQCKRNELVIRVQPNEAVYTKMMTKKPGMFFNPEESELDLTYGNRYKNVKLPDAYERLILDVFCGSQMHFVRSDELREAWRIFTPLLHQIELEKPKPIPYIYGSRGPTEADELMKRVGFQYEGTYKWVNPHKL
Chain of Large T antigen (P03070 whole entry): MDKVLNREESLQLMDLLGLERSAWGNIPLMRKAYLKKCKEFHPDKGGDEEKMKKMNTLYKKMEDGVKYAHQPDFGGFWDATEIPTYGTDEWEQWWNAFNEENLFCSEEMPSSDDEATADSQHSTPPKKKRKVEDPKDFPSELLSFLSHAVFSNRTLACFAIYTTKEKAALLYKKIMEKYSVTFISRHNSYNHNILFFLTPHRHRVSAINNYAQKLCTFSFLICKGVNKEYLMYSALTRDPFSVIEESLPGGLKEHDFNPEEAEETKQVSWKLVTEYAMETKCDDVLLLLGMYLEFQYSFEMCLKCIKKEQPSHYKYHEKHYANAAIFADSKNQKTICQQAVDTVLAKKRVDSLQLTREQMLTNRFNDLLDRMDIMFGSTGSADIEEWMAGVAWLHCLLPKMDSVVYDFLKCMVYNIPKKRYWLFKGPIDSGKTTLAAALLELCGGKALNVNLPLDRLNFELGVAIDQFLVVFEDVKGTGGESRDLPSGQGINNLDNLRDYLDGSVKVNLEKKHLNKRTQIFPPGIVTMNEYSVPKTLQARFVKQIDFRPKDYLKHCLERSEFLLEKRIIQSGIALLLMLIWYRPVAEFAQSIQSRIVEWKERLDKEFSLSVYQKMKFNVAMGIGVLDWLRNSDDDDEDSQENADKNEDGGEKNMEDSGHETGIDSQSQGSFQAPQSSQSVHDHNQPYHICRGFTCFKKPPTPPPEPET
Chain of Protein-tyrosine kinase 2-beta (Q14289 whole entry): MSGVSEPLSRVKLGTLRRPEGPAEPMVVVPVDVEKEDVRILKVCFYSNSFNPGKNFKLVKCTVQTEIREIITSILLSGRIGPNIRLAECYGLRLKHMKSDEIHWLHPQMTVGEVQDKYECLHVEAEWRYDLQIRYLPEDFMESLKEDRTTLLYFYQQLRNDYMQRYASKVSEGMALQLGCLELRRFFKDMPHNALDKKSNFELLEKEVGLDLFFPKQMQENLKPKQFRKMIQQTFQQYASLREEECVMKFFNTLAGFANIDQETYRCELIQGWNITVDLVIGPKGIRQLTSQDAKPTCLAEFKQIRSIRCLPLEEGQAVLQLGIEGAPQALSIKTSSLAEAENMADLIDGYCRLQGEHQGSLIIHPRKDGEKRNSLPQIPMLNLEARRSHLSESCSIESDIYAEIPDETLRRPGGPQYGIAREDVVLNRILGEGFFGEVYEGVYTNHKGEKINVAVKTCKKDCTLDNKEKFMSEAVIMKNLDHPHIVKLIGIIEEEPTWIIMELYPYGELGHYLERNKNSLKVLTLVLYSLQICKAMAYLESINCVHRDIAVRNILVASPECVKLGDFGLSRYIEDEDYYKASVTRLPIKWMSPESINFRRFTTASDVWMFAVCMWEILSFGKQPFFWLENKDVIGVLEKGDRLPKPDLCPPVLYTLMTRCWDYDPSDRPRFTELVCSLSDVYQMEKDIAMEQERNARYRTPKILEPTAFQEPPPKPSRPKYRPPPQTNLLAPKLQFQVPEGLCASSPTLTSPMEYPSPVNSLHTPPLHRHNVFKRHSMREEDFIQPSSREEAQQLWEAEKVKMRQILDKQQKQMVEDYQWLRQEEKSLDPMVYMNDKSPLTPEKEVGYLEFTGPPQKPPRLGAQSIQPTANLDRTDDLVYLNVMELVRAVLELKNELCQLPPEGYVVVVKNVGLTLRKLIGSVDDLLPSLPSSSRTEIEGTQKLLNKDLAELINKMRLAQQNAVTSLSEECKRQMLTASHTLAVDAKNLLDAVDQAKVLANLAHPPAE

## Cc1ccc2c(c1)c(CC(=O)Nc1ccc(C)c(F)c1)c(C(=O)O)n2C
[1]
  IC50: 12.6 µM (active)

## COc1ccc2c(c1OC)C(=O)N1c3ccccc3C(=O)N(c3ccccc3)C21 (stereo not given)
[2]
  IC50: > 79 µM (inactive)

## C=CCc1c(C)nc(S)c(C#N)c1C
[3]
  IC50: > 80 µM (inactive)

## Cc1nc(C)c(-c2ccc(SCC(=O)Nc3cccc(Cl)c3)nn2)s1
[4]
  IC50: > 20 µM (inactive)
[5]
  IC50: 4.18 µM (active)
[6]
  IC50: 4.58 µM (active)
[7]
  EC50: > 20 µM (inactive)

## Cc1cc2cc3c(N)[nH]nc3nc2cc1C
[8]
  IC50: 30.3 µM (active)
[9]
  IC50: > 69.5 µM (not active)

## CCC(=O)N1CCc2cc(Br)cc(S(=O)(=O)NCCCN(CC)Cc3ccccc3)c21
[10]
  EC50: 13.3 nM (active)

## CCOC(=O)c1cccc(C2=C(CNC(=O)c3cccnc3)[C@H]3CC[C@@H](C2)N3Cc2ccccc2)c1
[2]
  IC50: 35.3 µM (inactive)

## COc1ccc(NS(=O)(=O)c2ccc(N/N=C(\C)c3ccncc3)c([N+](=O)[O-])c2)cc1
[4]
  IC50: 17.8 µM (active)
[5]
  IC50: 3.9 µM (active)
[6]
  IC50: 2.11 µM (active)
[7]
  EC50: 4.33 µM (active)

## COCCCNc1ccn2nc(-c3ccccc3)cc2n1
[11]
  AC50: 7.19 µM (active)
[12]
  AC50: 6.82 µM (active)

## C[C@@H]1CN([C@@H](C)CO)C(=O)c2cccc(NS(=O)(=O)c3cccs3)c2O[C@@H]1CN(C)Cc1ccc(C(F)(F)F)cc1
[13]
  AC50: 2.04 µM (active)
[14]
  AC50: 16.7 µM (active)

## Cc1ccc(C(=O)NC2CCCCC2)cc1S(=O)(=O)N1CCCC1
[1]
  IC50: 1.26 µM (active)

## O=C(CNc1ccc2c(c1)OCO2)N/N=C\c1cn(Cc2ccccc2)c2ccccc12
[15]
  EC50: 10.5 µM (active)
[16]
  EC50: 6.5 µM (active)
[17]
  EC50: 9.09 µM (active)
[3]
  IC50: > 80 µM (inactive)

## O=c1[nH]c2ccccc2c2ccccc12
[2]
  IC50: > 79 µM (inactive)
